Results from patent US20240368147A1, “CYCLIN K DEGRADER” (ADLAI NORTYE BIOPHARMA CO., LTD., priority 2021, published 2024).

Legend:
[1] = test system: HGC27 (Human Gastric Cancer Cell); test: HGC27 cell growth inhibition (CellTiter-Glo); type: cell-based; settings: Homo sapiens, HGC-27, 24 h, HGC27 cells, 24 hours, CellTiter-Glo; read-out: HGC27 CTG IC50
Experimental: Biological Activity Detection of HGC27 (Human Gastric Cancer Cell) Cell Growth Inhibition
This detection method is used to evaluate the cellular level biological activity of the compounds of the present disclosure.
Harvest HGC27 cells (purchased from Chinese Academy of Sciences), resuspend in complete culture medium and adjust the cell density to 0.2×10^6 cells per ml. Add 100 μL of cell suspension to each well into a 96-well plate and incubate overnight in a 37° C., 5% CO2 incubator. Prepare the compound to be tested and add it to the cell plate so that the maximum concentration of the compound is 10 μM. Set 8 concentration points according to 3-fold dilution. At the same time, set up a 100% inhibition control well, that is, a well with no cells added and only an equal volume of complete culture medium; and a 0% inhibition control well, that is, a cell well with 0.1% DMSO added. The above cell plate was cultured at 37° C. and 5% CO2 for 24 hours. Take out the cell culture plate, add 25 μl CellTiter-Glo® Luminescent Cell Viability reagent (promega cat #G7573) to each well, incubate in the dark for 10 minutes, transfer 100 μL to a white plate, and use Molecular Devices SpectraMax i3 to detect chemiluminescence. Data processing uses the following formula to calculate the inhibition rate: compound inhibition rate=(0% inhibition of control well signal−compound treatment well signal)/(0% inhibition of control well signal−100% inhibition of control well signal)*100%. The calculated data were fitted using graphpad prism software with four parameters and the corresponding IC50 was calculated.
According to the above detection method, the biological activity of the compound of the present disclosure was evaluated at the cellular level. Wherein, CR8 is a literature compound, which was purchased from Shanghai Bide Pharmaceutical.

[2] = target: T1, Cyclin K (CCNK) (Homo sapiens, UniProt O75909+Q9NYV4); test: Western blot detection of Cyclin K (CCNK) degradation; type: cell-based; settings: HEK293 cells, compared with the control; for degradation of Cyclin K (FIG. 2): 1 μM, 6 hours
T1 construct: total cell protein was extracted with RIPA cell lysis buffer; host or cells: HEK293
Experimental: Western Blot Detection of Cyclin K (CCNK) Degradation
Harvest HEK1293 cells (ATCC, cat #CRL-1573) and adjust the cell density to 1×10^6 cells per ml. Pour 1 ml of cell suspension per well into a 6-well plate and culture overnight. Take the compound stock solution and dilute it to the appropriate concentration with DMSO. Add the diluted compound into the cell wells using culture medium at a ratio of 1:1000 to ensure that the DMSO concentration in each well is 0.1%. At the same time, negative control wells were set, that is, complete culture medium containing 0.1% DMSO. After the compounds were treated and fixed at the concentrations shown in the figure and for different times, total cell protein was extracted with RIPA cell lysis buffer (Beyotime, cat #P0013B) added with PMSF. After protein quantification using the BCA protein quantification kit (Thermo Fisher, cat #A53225), each sample was subjected to subsequent SDS-PAGE and western blot experiments at a loading volume of 40 μg. The specific conditions are: after running the gel at 120V constant pressure for 90 minutes, transfer the film at a constant current of 320 mA for 60 minutes. Carry out antibody incubation according to the recommended dilution ratio and incubation time of the antibody. The information of the antibodies used in the experiment is as follows: Anti-GAPDH antibody (abcam, cat #ab9485), Anti-Cyclin K antibody (abcam, cat #ab85854), Goat anti-Rabbit IgG (H+L) Cross-Adsorbed Secondary Antibody, HRP (invitrogen, cat #G-21234). ECL luminescence solution (Thermo Fisher, cat #32209) was used to develop color and luminescence. A gel imaging system was used to analyze the final results.
According to the above detection method, some compounds of the present disclosure were evaluated.

T1 sequence (O75909 whole entry): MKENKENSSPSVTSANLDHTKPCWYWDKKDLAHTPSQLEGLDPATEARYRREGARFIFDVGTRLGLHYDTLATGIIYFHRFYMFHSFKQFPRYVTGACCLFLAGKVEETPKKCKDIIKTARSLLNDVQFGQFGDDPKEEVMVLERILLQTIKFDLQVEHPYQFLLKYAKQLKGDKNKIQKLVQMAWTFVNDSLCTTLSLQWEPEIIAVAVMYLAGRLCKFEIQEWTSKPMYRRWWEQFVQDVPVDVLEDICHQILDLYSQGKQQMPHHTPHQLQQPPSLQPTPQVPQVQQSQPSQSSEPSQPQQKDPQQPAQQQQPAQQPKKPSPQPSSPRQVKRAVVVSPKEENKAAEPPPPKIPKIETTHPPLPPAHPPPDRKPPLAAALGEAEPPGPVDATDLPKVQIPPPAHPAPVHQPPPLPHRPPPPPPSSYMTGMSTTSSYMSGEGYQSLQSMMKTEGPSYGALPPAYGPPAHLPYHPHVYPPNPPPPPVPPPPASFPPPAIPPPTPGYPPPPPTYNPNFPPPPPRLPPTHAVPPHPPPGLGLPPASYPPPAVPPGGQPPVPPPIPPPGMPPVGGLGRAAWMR
T1 sequence (Q9NYV4 whole entry): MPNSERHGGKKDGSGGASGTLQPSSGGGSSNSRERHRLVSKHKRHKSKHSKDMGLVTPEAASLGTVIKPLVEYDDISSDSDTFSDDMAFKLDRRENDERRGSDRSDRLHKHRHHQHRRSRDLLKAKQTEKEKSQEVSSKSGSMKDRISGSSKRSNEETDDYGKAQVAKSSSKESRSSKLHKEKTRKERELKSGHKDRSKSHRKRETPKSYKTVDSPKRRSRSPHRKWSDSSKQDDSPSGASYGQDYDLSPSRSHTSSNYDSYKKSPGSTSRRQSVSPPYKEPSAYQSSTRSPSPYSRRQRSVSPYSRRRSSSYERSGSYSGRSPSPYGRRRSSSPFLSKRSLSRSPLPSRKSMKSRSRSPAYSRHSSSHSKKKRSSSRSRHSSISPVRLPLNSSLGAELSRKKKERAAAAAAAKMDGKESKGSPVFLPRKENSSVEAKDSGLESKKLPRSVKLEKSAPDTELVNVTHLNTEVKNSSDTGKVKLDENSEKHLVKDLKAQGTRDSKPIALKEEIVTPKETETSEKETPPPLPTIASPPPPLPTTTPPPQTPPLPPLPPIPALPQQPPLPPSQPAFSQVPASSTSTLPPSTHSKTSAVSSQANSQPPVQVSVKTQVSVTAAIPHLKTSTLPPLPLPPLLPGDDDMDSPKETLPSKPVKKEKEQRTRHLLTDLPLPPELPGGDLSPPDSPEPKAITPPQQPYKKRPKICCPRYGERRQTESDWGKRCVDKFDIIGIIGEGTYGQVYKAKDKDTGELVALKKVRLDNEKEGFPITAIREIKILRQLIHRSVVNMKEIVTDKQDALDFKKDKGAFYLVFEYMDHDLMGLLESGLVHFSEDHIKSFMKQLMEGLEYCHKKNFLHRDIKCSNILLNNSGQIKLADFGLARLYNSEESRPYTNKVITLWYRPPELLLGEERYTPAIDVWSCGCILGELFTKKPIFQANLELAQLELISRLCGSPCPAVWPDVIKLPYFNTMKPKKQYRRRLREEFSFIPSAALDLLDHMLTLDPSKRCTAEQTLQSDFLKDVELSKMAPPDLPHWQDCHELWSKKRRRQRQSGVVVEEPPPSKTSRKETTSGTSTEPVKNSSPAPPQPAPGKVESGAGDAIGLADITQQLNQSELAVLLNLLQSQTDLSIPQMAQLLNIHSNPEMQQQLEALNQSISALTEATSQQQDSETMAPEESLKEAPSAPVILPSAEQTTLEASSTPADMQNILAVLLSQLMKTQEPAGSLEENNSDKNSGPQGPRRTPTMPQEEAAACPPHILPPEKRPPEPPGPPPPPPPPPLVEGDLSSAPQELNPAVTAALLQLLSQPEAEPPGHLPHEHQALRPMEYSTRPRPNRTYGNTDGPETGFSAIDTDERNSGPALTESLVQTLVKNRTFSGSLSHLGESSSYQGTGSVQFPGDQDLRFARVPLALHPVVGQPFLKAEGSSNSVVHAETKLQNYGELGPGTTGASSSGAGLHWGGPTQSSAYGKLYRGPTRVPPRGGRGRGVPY
T1 sequence (Q16531 whole entry partner): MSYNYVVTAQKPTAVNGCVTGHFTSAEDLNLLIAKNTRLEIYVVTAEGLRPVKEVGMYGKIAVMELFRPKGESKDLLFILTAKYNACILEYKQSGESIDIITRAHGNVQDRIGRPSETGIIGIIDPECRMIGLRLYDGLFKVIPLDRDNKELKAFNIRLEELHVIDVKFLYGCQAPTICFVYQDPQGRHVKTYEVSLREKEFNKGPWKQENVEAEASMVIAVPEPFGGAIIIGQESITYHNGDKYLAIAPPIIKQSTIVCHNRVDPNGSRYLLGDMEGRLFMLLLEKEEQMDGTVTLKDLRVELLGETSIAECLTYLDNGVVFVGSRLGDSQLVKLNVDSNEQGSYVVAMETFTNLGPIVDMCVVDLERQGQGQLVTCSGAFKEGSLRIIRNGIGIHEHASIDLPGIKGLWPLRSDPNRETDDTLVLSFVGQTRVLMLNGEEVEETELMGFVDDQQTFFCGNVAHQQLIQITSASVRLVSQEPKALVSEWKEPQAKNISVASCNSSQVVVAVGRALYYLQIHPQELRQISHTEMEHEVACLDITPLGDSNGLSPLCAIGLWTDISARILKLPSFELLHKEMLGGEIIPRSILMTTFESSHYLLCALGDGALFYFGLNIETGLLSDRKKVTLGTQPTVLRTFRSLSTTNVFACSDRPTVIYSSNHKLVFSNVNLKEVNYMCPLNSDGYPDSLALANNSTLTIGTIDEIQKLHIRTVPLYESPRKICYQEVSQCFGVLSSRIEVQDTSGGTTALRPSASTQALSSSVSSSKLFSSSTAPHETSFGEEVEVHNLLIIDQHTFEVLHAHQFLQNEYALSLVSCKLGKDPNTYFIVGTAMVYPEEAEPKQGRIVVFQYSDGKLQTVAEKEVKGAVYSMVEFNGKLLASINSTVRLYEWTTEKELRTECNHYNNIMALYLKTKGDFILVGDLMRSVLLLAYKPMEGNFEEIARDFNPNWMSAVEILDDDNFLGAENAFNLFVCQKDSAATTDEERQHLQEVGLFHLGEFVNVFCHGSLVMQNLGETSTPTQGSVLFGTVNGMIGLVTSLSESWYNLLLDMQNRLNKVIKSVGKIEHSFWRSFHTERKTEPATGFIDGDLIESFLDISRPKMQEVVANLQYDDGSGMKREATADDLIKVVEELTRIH

| IC50 [1] [nM] | SMILES | degradation of Cyclin K (FIG. 1) ([2]; 0.1, 0.3, 1 μM, 6 h, 14 h, 24 h) | degradation of Cyclin K (FIG. 2) [2] |
| --- | --- | --- | --- |
| 385 | FC(F)(F)c1cnc(NCc2ccc(-c3ccccn3)cc2)nc1OC1COC1 [Compound 1] | significantly induce the degradation of Cyclin K |  |
|  | Clc1cnc(NCc2ccc(-c3ccccn3)cc2)nc1OC1COC1 [Compound 3] |  | significantly induce the degradation of Cyclin K |
|  | FC(F)(F)c1cnc(NCc2ccc(-c3ccccn3)cn2)nc1OC1COC1 [Compound 4] |  | significantly induce the degradation of Cyclin K |
|  | FC(F)(F)c1cnc(NCc2ccc(-c3cccnc3)cc2)nc1OC1COC1 [Compound 5] |  | significantly induce the degradation of Cyclin K |
|  | FC(F)(F)c1cnc(NCc2ccc(-c3ccccn3)cc2)nc1NC1COC1 [Compound 8] |  | significantly induce the degradation of Cyclin K |
| 307 | CS(=O)(=O)c1cncc(-c2nc(NCc3ccc(-c4ccccn4)cc3)ncc2C(F)(F)F)c1 [Compound 13] |  | significantly induce the degradation of Cyclin K |
| 281 | OCc1cccc(-c2ccc(CNc3ncc(C(F)(F)F)c(OC4COC4)n3)cc2)n1 [Compound 18] |  | significantly induce the degradation of Cyclin K |
